Measurements published in article PMC3866251, “The Sodium/Proline Transporter PutP of Helicobacter pylori” (PLoS ONE, 2013).

Molecular target: T1, HpPutP (Helicobacter pylori, UniProt B6JPE8)
T1 construct: gene putP; full-length, C-terminal 6His tag (FLAG-6His for Western blots), expressed in E. coli WG170 (PutP-A-), intact cells
Test: inhibition of […]-L-proline uptake into E. coli WG170 expressing HpPutP, Dixon plot
Format: cell-based

T1 sequence (B6JPE8 1-496): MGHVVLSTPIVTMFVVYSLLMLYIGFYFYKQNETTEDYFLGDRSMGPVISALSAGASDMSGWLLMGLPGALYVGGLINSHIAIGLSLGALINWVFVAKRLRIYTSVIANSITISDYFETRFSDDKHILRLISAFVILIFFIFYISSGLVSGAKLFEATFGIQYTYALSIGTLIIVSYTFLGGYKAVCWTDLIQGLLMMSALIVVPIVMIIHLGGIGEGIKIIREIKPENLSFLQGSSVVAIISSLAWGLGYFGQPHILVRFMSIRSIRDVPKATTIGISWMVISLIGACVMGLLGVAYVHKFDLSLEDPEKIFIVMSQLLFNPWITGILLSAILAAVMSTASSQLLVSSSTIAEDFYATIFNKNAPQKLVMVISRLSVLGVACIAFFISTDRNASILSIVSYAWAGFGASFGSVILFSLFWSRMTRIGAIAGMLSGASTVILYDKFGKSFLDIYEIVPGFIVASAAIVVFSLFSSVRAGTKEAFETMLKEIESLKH

SMILES | Ki
O=C(O)C1C=CCN1 (racemic) [DHP, 3,4-dehydro-D,L-proline] | 5.7 ± 0.9 µM
O=C(O)[C@@H]1CCN1 [AZC, L-azetidine-2-carboxylic acid] | 44.2 ± 6.3 µM
